In article PMC8715907 (Chembiochem : a European journal of chemical biology, 2020):

Experiments:
RECON (mRECON) = molecular target: T1, RECON (mRECON) (Mus musculus, UniProt Q8VC28); assay: DRaCALA; type: binding
T1 sequence (Q8VC28 1-323): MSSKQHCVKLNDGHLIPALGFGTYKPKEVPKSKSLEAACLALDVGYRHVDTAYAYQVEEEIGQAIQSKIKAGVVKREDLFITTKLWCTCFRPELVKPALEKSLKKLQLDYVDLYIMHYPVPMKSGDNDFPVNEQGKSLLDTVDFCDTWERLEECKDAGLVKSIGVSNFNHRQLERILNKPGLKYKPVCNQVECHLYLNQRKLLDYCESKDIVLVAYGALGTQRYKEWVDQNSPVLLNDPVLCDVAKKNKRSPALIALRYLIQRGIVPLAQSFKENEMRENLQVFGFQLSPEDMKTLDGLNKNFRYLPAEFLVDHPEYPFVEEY

CnpB = CnpB (Mycobacterium tuberculosis, UniProt P71615); assay: DRaCALA, serial dilutions of protein; type: binding
Sequence of CnpB (P71615 whole entry): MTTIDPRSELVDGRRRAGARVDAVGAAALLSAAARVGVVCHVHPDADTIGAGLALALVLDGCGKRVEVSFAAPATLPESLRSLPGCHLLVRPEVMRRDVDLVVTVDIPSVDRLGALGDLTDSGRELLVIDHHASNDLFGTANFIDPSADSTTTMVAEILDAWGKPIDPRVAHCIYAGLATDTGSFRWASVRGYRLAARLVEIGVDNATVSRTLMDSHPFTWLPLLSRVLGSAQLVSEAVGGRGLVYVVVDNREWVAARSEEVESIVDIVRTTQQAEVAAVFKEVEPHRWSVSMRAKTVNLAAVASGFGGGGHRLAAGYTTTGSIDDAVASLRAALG

SMILES: Nc1ncnc2c1ncn2[C@@H]1O[C@@H]2COP(=O)(O)O[C@H]3[C@@H](O)[C@H](n4cnc5c(N)ncnc54)O[C@@H]3COP(=O)(O)O[C@H]2[C@H]1O [3’3’-c-di-AMP]
- Kd (RECON (mRECON)): 68 nM
- Kd (CnpB): ~3000 nM
